From the NIST ThermoML archive (doi:10.1016/j.tca.2011.06.020)
Numbers after ± are expanded uncertainties.

How the values were obtained:
[1] = xn = mol fraction of the nth substance listed; settings: 101 kPa, Liquid; for speed of sound: Sing-around technique in a fixed-path interferometer; for mass density: Vibrating tube method
[2] = 101 kPa, Liquid; for speed of sound: Sing-around technique in a fixed-path interferometer; for mass density: Vibrating tube method

| SMILES | speed of sound ([2]; 298.15 K) [m/s] | mass density ([2]; 298.15 K) [kg/m3] | speed of sound ([2]; 303.15 K) [m/s] | mass density ([2]; 303.15 K) [kg/m3] | speed of sound ([2]; 308.15 K) [m/s] | mass density ([2]; 308.15 K) [kg/m3] | speed of sound ([1]; 298.15 K, x2 = 0) [m/s] | mass density ([1]; 298.15 K, x2 = 0) [kg/m3] | speed of sound ([1]; 303.15 K, x2 = 0) [m/s] | mass density ([1]; 303.15 K, x2 = 0) [kg/m3] | speed of sound ([1]; 308.15 K, x2 = 0) [m/s] | mass density ([1]; 308.15 K, x2 = 0) [kg/m3] | further results |
| --- | --- | --- | --- | --- | --- | --- | --- | --- | --- | --- | --- | --- | --- |
| C1CCOCC1 [tetrahydropyran] + CNC=O | – | – | – | – | – | – | – | – | – | – | – | – | speed of sound ([1]; 298.15 K, x1 = 1): 1269.9 ± 2.9 m/s; mass density ([1]; 298.15 K, x1 = 1): 879.136 ± 0.7 kg/m3; speed of sound ([1]; 303.15 K, x1 = 1): 1246.8 ± 2.9 m/s; mass density ([1]; 303.15 K, x1 = 1): 873.992 ± 0.7 kg/m3; speed of sound ([1]; 308.15 K, x1 = 1): 1224.5 ± 2.9 m/s; mass density ([1]; 308.15 K, x1 = 1): 868.831 ± 0.69 kg/m3 |
| C1CCOCC1 [tetrahydropyran] | 1269.9 ± 2.9 | 879.136 ± 0.7 | 1246.8 ± 2.9 | 873.992 ± 0.7 | 1224.5 ± 2.9 | 868.831 ± 0.69 | – | – | – | – | – | – | – |
| C1CCOCC1 [tetrahydropyran] + Cc1ccccc1N | – | – | – | – | – | – | 1269.9 ± 2.9 | 879.136 ± 0.7 | 1246.8 ± 2.9 | 873.992 ± 0.7 | 1224.5 ± 2.9 | 868.831 ± 0.69 | – |
| CNC=O [N-methylformamide] + Cc1ccccc1N | – | – | – | – | – | – | 1432.9 ± 2.9 | 999.004 ± 0.84 | 1417.7 ± 2.9 | 994.653 ± 0.83 | 1402.5 ± 2.9 | 990.302 ± 0.83 | – |
| CNC=O [N-methylformamide] | 1432.9 ± 2.9 | 999.004 ± 0.84 | 1417.7 ± 2.9 | 994.653 ± 0.83 | 1402.5 ± 2.9 | 990.302 ± 0.83 | – | – | – | – | – | – | – |
| Cc1ccccc1N [2-methylaniline] | 1602.6 ± 2.4 | 994.351 ± 0.23 | 1577.8 ± 2.6 | 990.224 ± 0.45 | 1558.4 ± 2.4 | 986.069 ± 0.23 | – | – | – | – | – | – | – |
